Measurements published in paper PMC9954146, “Anti-Leukaemic Activity of Rilpivirine Is Mediated by Aurora A Kinase Inhibition” (Cancers, 2023).

Columns and labels:
Type in all cases: cell-based, human
U-937 cells [1] = experiment: Cell cycle analysis (PI, flow cytometry); details: 20 μM, 24 h
Method: (§1) To determine the effect of rilpivirine on cell-cycle distribution a flow cytometry-based analysis was performed after staining the untreated and treated cells with propidium iodide (PI) solution [22]. Briefly, 6 × 10^4 cells/well were seeded in 3 mL of medium per well in 6-well plates. After overnight incubation at 37 °C in 5% CO2, the cells were incubated with the test compounds for specified time points. The medium-containing cells were then taken out from the wells and transferred to FACS tubes. Cells were then pelleted by centrifugation at 300 g for 5 min. Afterward, cells were fixed by using 70% (v/v) ice-cold ethanol for 15 min and then again pelleted by centrifugation (300 g for 5 min). Finally, the cells were incubated with 200 µL of PI staining solution (50 μg/mL PI, 0.1% sodium citrate, 0.1 mg/mL RNase A, and 0.1% Triton X-100) for 1.5 h at room temperature in the dark. After the incubation period, the cells were analysed using a CytoFLEX flow cytometer (Beckman Coulter Inc., Brea, CA, USA). CytExpert software version 2.1 was used for data analysis and graph preparation.

KG1 cells = experiment: Cell cycle analysis (PI, flow cytometry); details: 10 µM or 20 µM, 24 h
Method: as §1

HL-60 cells [2] = experiment: Cell cycle analysis (PI, flow cytometry); details: for G2-M cells: 24 h
Method: as §1

NB4 cells [3] = experiment: Cell cycle analysis (PI, flow cytometry); details: 20 μM, 24 h
Method: as §1

K-562 cells [4] = experiment: Cell cycle analysis (PI, flow cytometry); details: 20 μM, 24 h
Method: as §1

U-937 cells [5] = experiment: Apoptosis, annexin V/PI double staining; details: 48 h
Method: (§2) The cellular apoptosis was detected using annexin-V/PI double staining by following a method described previously. Briefly, cells were added in 6-well plates containing 3 mL of medium each well at 8 × 10^4 cells/well and incubated at 37 °C, 5% CO2. After overnight incubation, the test compounds were added to the cells and again incubated for desired time points. Then, the cells were collected in FACS tubes, washed with PBS and incubated with annexin V and PI solution for 15 min in the dark at room temperature. The apoptotic cell death was measured within 1 h using the same instrument and data processing software described for cell cycle analysis.

HL-60 cells [6] = experiment: Apoptosis, annexin V/PI double staining; details: 48 h
Method: as §2

MV4-11 cells = experiment: Apoptosis, annexin V/PI double staining; details: 10 or 20 μM, 48 h; FLT3-ITD mutation
Method: as §2

NB4 cells [7] = experiment: Apoptosis, annexin V/PI double staining; details: 48 h
Method: as §2

K-562 cells [8] = experiment: Apoptosis, annexin V/PI double staining; details: 48 h
Method: as §2

Cc1cc(/C=C/C#N)cc(C)c1Nc1ccnc(Nc2ccc(C#N)cc2)n1 [rilpivirine, (E)-4-((4-((4-(2-cyanoethenyl)-2,6-dimethylphenyl)amino)pyrimidin-2-yl)amino)benzonitrile]
G2-M cells (U-937 cells [1]): 36.61%
cell-cycle arrest (KG1 cells): induced G2/M cell-cycle arrest
G2-M cells (HL-60 cells [2]; 5 μM): 31.15%
G2-M cells (HL-60 cells [2]; 10 µM): 40.70%
time of maximum accumulation in the G2/M phase (HL-60 cells [2]; 10 µM, time course): 16 h
G2-M cells (HL-60 cells [2]; 20 μM): 46.32%
G2-M cells (NB4 cells [3]): 55.25%
G2-M cells (K-562 cells [4]): 46.23%
apoptotic cells (early and late apoptosis) (U-937 cells [5]; 5 µM): 20.68%
apoptotic cells (early and late apoptosis) (U-937 cells [5]; 10 µM): 29.58%
apoptotic cells (early and late apoptosis) (U-937 cells [5]; 20 µM): 39.47%
apoptotic cells (early and late apoptosis) (HL-60 cells [6]; 5 µM): 6.94%
apoptotic cells (early and late apoptosis) (HL-60 cells [6]; 10 µM): 48.73%
apoptotic cells (early and late apoptosis) (HL-60 cells [6]; 20 µM): 67.32%
apoptosis induction (MV4-11 cells): induced significant apoptosis
apoptotic cells (early and late apoptosis) (NB4 cells [7]; 5 µM): 31.62%
apoptotic cells (early and late apoptosis) (NB4 cells [7]; 10 µM): 87.04%
apoptotic cells (early and late apoptosis) (NB4 cells [7]; 20 µM): 98.9%
apoptotic cells (early and late apoptosis) (K-562 cells [8]; 5 µM): 15.06%
apoptotic cells (early and late apoptosis) (K-562 cells [8]; 10 µM): 31.88%
apoptotic cells (early and late apoptosis) (K-562 cells [8]; 20 µM): 38.21%
